Experimental data as given in PMC12171319, “3‐Oxabicyclo[3.1.1]heptane as an Isostere of meta‐Benzene” (Angewandte Chemie (International Ed. in English), 2025).
Values after ≈ are worked out from the molar mass of the structure shown. Values joined by “and” are separate entries in the source; they are usually repeats but may differ in a detail not shown here. Equal entries are not always repeated. Where two headings read alike, the source gives them in different places. Values belong to the molecule of their own block, whether it stands above or below them.

Assays:
[1] = Preliminary thermal stability, heating at 100 °C for 5 min; format: physicochemical; conditions: monitored by 1H NMR and LC-MS
From the text: In addition, we checked the preliminary thermal stability of two representative 3‐oxabicyclo[3.1.1]heptanes: carboxylic acid 11b and N‐Boc amino acid 40.

[2] = Experimental pKa of carboxylic acids; format: physicochemical; conditions: for pKa: read-out: pKa (exp.)
From the text: We also studied the influence of the replacement of the methylene group for the oxygen atom in the bicyclo[3.1.1]heptane skeleton on the electronic properties. For that, we experimentally measured pK a values of the bicyclo[3.1.1]heptane carboxylic acid 49, the 3‐oxabicyclo[3.1.1]heptane carboxylic acid 18b, and meta‐methyl benzoic acid (48) as a reference (Figure 5).^[ [34] ^]

[3] = parameters: method as in earlier work; conditions: cited from earlier work
[4] = Kinetic solubility in phosphate-buffered saline, pH 7.4; format: physicochemical; conditions: for solubility at 2 h: PBS solubility
Method: page 239: 7. […] The data […] analysis software. […] page 240: Methods Kinetic solubility assay was performed according to Enamine's aqueous solubility SOP. Briefly, […] theoretical concentration of 400 μM in duplicates in phosphate-buffered saline pH 7.4 […] The experimental compound dilutions in PBS were further allowed to equilibrate at 25 °C on a thermostatic shaker for two hours and then filtered through HTS filter plates using a vacuum manifold. The filtrates of test […] prepared to theoretical concentrations of 0 μM (blank), 10 μM, 25 μM, 50 μM, 100 μM, and 200 […] Ondansetron was used as a reference compound to control proper assay performance. 200 μL of each sample was transferred to a 96-well plate and measured in the 230-550 nm range with a 5 nm step. The concentrations of compounds in PBS filtrate are calculated using a dedicated Microsoft Excel calculation script. Proper absorbance wavelengths for calculations are selected for each compound manually based on absorbance maximums (absolute absorbance unit values for the minimum and maximum concentration points within the 0 - 3 OD range). Each final dataset is visually evaluated by the operator, and goodness of fit (R2) is calculated for each calibration curve. […] close to the upper limit of the range may have higher actual solubility (e.g. 5'-deoxy-5- fluorouridine). The calibration curves are shown in Appendix*. […] Compound ID PBS solubility, pH 7.4, μM SE […] Ondansetron 128 126 127** 1.1 EN300-7362818 6 6 6 0.2 (Sonidegib) BCHep-Sonidegib (50) 5 3 4 0.9 Table S3. 2nd batch PBS solubility, pH 7.4, μM Compound ID SE […] Ondansetron 124 124 124** 0.1 EN300-45381956 (51) 34 34 34 0.2 *Goodness of fit (R2) in all titration curves as well as the variations between repeat measurements indicates a high quality of the experimental data in the current batch of test articles. **Ondansetron solubility data are consistent with those previously obtained. […]

[5] = Metabolic stability in human liver microsomes; format: in vitro ADME; conditions: for remaining at […], 2 µM: 15 min
Method: 9. Metabolic Stability in Human Liver Microsomes
The objective of this study was to determine the metabolic stability of 3 test articles (EN300- […]
in human liver microsomes at five-time points over 40 minutes using HPLC-MS. Metabolic stability is defined as the percentage of parent compound lost over time in the presence of a metabolically active test system.
Potassium phosphate monobasic (Bio-Basic, Canada; Lot #N9016010)
Potassium phosphate dibasic (Bio-Basic, Canada; Lot #MA7100050) […]
Glucose-6-phosphate dehydrogenase from baker's yeast, type XV (Sigma-Aldrich, USA; Cat […]
D-Glucose-6-phosphate sodium salt (Sigma-Aldrich, USA; Cat #G7879-1G)
NADPH tetrasodium salt (BLD Pharmatech Ltd., Cat #BD116582)
Verapamil hydrochloride (Sigma Aldrich, USA; Cat #V4629)
Niclosamide (Sigma-Aldrich, USA; Cat #N3510)
DMSO stock solutions of the tested compounds 20 mM
Gradient HPLC system (Shimadzu)
Triple quadrupole mass-detector API 3000 with TurboIonSpray Ion Source (AB Sciex, Canada) […]
Multichannel pipettors 1-30 µL, 2-125 µL, 30-850 µL (Thermo Scientific) […]
All measurements were performed using the Shimadzu HPLC system including vacuum degasser, gradient pumps, reverse phase HPLC column, column oven, and autosampler. Mass spectrometric analysis was performed using an API 3000 mass spectrometer from Applied Biosystems/MDS Sciex (AB Sciex) with Turbo V ion source and TurboIonspray interface. The […]
and system control were performed using Analyst 1.6.3 software from AB Sciex.
Microsomal incubations were carried out in 96-well plates in 5 aliquots of 30 μL each (one for each time point). Liver microsomal incubation medium comprised of phosphate buffer (100 mM, pH 7.4), MgCl2 (3.3 mM), NADPН (3 mM), glucose-6-phosphate (5.3 mM), glucose-6-phosphate dehydrogenase (0.67 units/mL) with 0.42 mg of liver microsomal protein per mL. In the control reactions, the NADPH-cofactor system was substituted with phosphate buffer. Test compounds […]
100 rpm. Five-time points over 40 minutes were analyzed. The reactions were stopped by adding 5 volumes of acetonitrile with internal standard to incubation aliquots, followed by protein sedimentation by centrifuging at 5500 rpm for 5 min. Each reaction was performed in duplicates.
Supernatants were analyzed using the HPLC system coupled with a tandem mass spectrometer.
The elimination constant (kel), half-life (t1/2), and intrinsic clearance (Clint) were determined in a plot of […] versus time, using linear regression analysis:1
1 In order to indicate the quality of the linear regression analysis, the R2 (determination coefficient) values are provided.
In some cases, the last time point is excluded from the calculations to ensure acceptable logarithmic linearity of decay.

[6] = tested on: Hedgehog signaling pathway; conditions: Mus musculus, NIH3T3, read-out: IC50 (HH signal): inhibition of the Hedgehog signaling pathway, Gli reporter NIH3T3 cell line
in vitro = conditions: human, 90 min, no verapamil; for Papp A→B: Caco-2, pH 7.4, Papp (AB); for Papp B→A: Caco-2, pH 7.4, Papp (BA)
[7] = 25 °C, pH 7.4, aqueous buffer, kinetic from dmso stock, pH 7.4, Incubation 1
[8] = 25 °C, pH 7.4, aqueous buffer, kinetic from dmso stock, pH 7.4, Incubation 2
[9] = 25 °C, pH 7.4, aqueous buffer, kinetic from dmso stock, pH 7.4, Mean
[10] = both sexes, human, liver microsomes, pH 7.4, Table S6, 1st batch, 2 µM
[11] = Table S4, 1st batch, incubation 1
[12] = Table S4, 1st batch, incubation 2
[13] = Table S4, 1st batch, incubation 3

- thermal stability [1]: remained stable
Compound: O=C(O)C12COCC(c3ccc(Br)cc3)(C1)C2 [Compound 11b]

- pKa (exp.) [2]: 4.2
- pKa [2]: 4.23
Compound: CC12COCC(C(=O)O)(C1)C2 [Compound 18b]

- thermal stability [1]: remained stable
Compound: CC(C)(C)OC(=O)NC12COCC(C(=O)O)(C1)C2 [Compound 40]

- pKa (exp.) [2]: 5.0
- pKa [2]: 5.03
Compound: CC12CCCC(C(=O)O)(C1)C2 [Compound 49]

- solubility kinetic at 2 h ([4]; 25 °C, pH 7.4, aqueous buffer, kinetic from dmso stock): 4 µM (≈ 1.96 µg/mL)
- solubility at 2 h [4, 7]: 5 µM (≈ 2.45 µg/mL)
- solubility at 2 h [4, 8]: 3 µM (≈ 1.47 µg/mL)
- solubility at 2 h [4, 9]: 4 µM (≈ 1.96 µg/mL)
- half-life at 2 μM ([5]; both sexes, human, human liver microsomes, pH 7.4, human liver microsomes, read-out: t1/2: experimental half-time of a metabolic decomposition): 2 h
- microsomal CLint at 2 μM ([5]; both sexes, human, human liver microsomes, pH 7.4, read-out: CLint: experimental metabolic stability in human liver microsomes): 14 µL/min/mg
- remaining at 7 min, 2 µM [5, 10]: 92%
- remaining at […], 2 µM [5, 10]: 98%
- remaining at 25 min, 2 µM ([5]; both sexes, human, liver microsomes, pH 7.4, Table S6, 1st batch, 25 min, 2 µM): 88%
- remaining at 40 min, 2 µM ([5]; both sexes, human, liver microsomes, pH 7.4, Table S6, 1st batch, 40 min, 2 µM, read-out: % Remaining, Mean of 2): 78%
- remaining at 40 min, 2 µM ([5]; both sexes, human, liver microsomes, pH 7.4, Table S6, 1st batch, 40 min, no NADPH, read-out: % Remaining without cofactor, Mean of 2): 93%
- k el at 2 µM ([5]; both sexes, human, liver microsomes, pH 7.4, Table S6, 1st batch): ~0.0001 s⁻¹
- microsomal CLint at 2 μM ([5]; both sexes, human, liver microsomes, pH 7.4, Table S6, 1st batch, read-out: Clint): ~14 µL/min/mg
- half-life at 2 μM ([5]; both sexes, human, liver microsomes, pH 7.4, Table S6, 1st batch, read-out: t1/2): ~2 h
- D [11]: 8.66E+04
- D [12]: 8.31E+04
- D [13]: 8.70E+04
- logD at 1 h (physchem; pH 7.4, LogD, pH 7.4): ≥ 4.5
- logD at 1 h (physchem; pH 7.4, LogD, pH 7.4 (overall of 3 incubations)): ≥ 4.5
- logD at 1 h (physchem; pH 7.4, logD (7.4): experimental distribution coefficient in n-octanol/phosphate-buffered saline, pH 7.4): ≥ 4
- IC50 [6]: 616 nM
Compound: CC1CN(c2ccc(NC(=O)C34CCCC(c5ccc(OC(F)(F)F)cc5)(C3)C4)cn2)CC(C)O1 (centres unmarked) [Compound 50]

Second part, the molecule before the results:

Compound: Cc1cccc(C(=O)O)c1 [Compound 48, meta‐methyl benzoic acid]
- pKa (exp.) [3]: 4.27 and 4.3

Compound: O=C(O)Cc1ccccc1Nc1c(Cl)cccc1Cl [Diclofenac]
- % Remaining, Mean of 2 ([5]; Table S6, 1st batch, 25 min, 2 µM): 4%
- % Remaining without cofactor, Mean of 2 ([5]; Table S6, 1st batch, 40 min, no NADPH): 95%
- % Remaining, Mean of 2 ([5]; Table S7, 2nd batch, 25 min, 2 µM): 11%
- % Remaining, Mean of 2 ([5]; Table S7, 2nd batch, 40 min, 2 µM): 2%
- remaining at 7 min, 2 µM [5, 10]: 46%
- remaining at […], 2 µM [5, 10]: 15%
- remaining at […], 2 µM ([5]; both sexes, human, liver microsomes, pH 7.4, Table S7, 2nd batch, 2 µM): 26%
- microsomal CLint at 2 μM ([5]; both sexes, human, liver microsomes, pH 7.4, Table S7, 2nd batch, read-out: Clint): 223 µL/min/mg

Compound: CC(C(=O)O)c1cccc(C(=O)c2ccccc2)c1 (centres unmarked) [Ketoprofen]
- Papp A→B (in vitro; Mean, 10 µM): 21.8 ×10⁻⁶ cm/s
- Papp A→B (in vitro; replicate 1, 10 µM): 19.8 ×10⁻⁶ cm/s
- Papp A→B (in vitro; replicate 2, 10 µM): 23.8 ×10⁻⁶ cm/s
- Papp B→A (in vitro; Mean, 10 µM): 18.7 ×10⁻⁶ cm/s
- Papp B→A (in vitro; replicate 1, 10 µM): 19.5 ×10⁻⁶ cm/s
- Papp B→A (in vitro; replicate 2, 10 µM): 17.9 ×10⁻⁶ cm/s

Compound: COC(=O)Nc1nc2ccc(C(=O)c3ccccc3)cc2[nH]1 [Mebendazole]
- D [11]: 8.21E+02
- D [12]: 8.87E+02
- D [13]: 8.17E+02
- D (Table S5, 2nd batch, incubation 1): 9.52E+02
- D (Table S5, 2nd batch, incubation 2): 1.14E+03
- D (Table S5, 2nd batch, incubation 3): 8.63E+02
- logD at 1 h (physchem; pH 7.4, LogD, pH 7.4): 3.06

Compound: Cc1nccn1CC1CCc2c(c3ccccc3n2C)C1=O (centres unmarked) [Ondansetron]
- solubility at 2 h [4, 7]: 124 µM (≈ 36.4 µg/mL)
- solubility at 2 h [4, 8]: 124 µM (≈ 36.4 µg/mL)
- solubility at 2 h [4, 9]: 124 µM (≈ 36.4 µg/mL)
- PBS solubility, pH 7.4, Mean ([4]; Table S2, 1st batch): 127 µM
